Experimental data published in ChEMBL document CHEMBL6114997, “New curcumin derivative induces ferroptosis in MCF-7 cells through activating SLC7A11/GPX4 axis” (Bioorg Med Chem, 2025).
The source made the active and inactive calls. The rule behind the calls is not given here.

Legend:
[1] = test system: A549; assay: Antiproliferative activity against human A549 cells assessed as inhibition of cell growth by MTT assay; format: functional, cell-based
[2] = test system: HT-29; assay: Antiproliferative activity against human HT-29 cells assessed as inhibition of cell growth by MTT assay; format: functional, cell-based
[3] = test system: MCF7; assay: Antiproliferative activity against human MCF7 cells assessed as inhibition of cell growth by MTT assay; format: functional, cell-based
[4] = test system: HepG2; assay: Antiproliferative activity against human HepG2 cells assessed as inhibition of cell growth by MTT assay; format: functional, cell-based
[5] = test system: HeLa; assay: Antiproliferative activity against human HeLa cells assessed as inhibition of cell growth by MTT assay; format: functional, cell-based
[6] = Antioxidant activity assessed as DPPH radical scavenging activity incubated for 30 mins in dark by absorbance based analysis; format: functional
[7] = test system: MCF7; assay: Induction of ferroptosis in human MCF7 cells assessed as change in GPX4 expression incubated for 24 hrs by Western blot analysis; format: functional, cell-based; settings: dose 1.5-3 µmol/L
[8] = Potency index, ratio of cisplatin IC50 to test compound IC50 for antiproliferative activity against human A549 cells assessed as inhibition of cell growth by MTT assay; format: functional
[9] = Potency index, ratio of cisplatin IC50 to test compound IC50 for antiproliferative activity against human HepG2 cells assessed as inhibition of cell growth by MTT assay; format: functional
[10] = test system: MCF7; assay: Induction of ferroptosis in human MCF7 cells assessed as decrease in SLC7A11 to GAPDH ratio at 1.5 to 3.0 micromol/L incubated for 24 hrs by Western blot analysis; format: functional, cell-based; settings: dose 1.5-3 µmol/L
[11] = test system: MCF7; assay: Induction of ferroptosis in human MCF7 cells assessed as decrease in GPX4 to beta-actin ratio at 1.5 to 3.0 micromol/L incubated for 24 hrs by Western blot analysis; format: functional, cell-based; settings: dose 1.5-3 µmol/L
[12] = Potency index, ratio of cisplatin IC50 to test compound IC50 for antiproliferative activity against human HT-29 cells assessed as inhibition of cell growth by MTT assay; format: functional
[13] = test system: MCF7; assay: Induction of ferroptosis in human MCF7 cells assessed as increase in intracellular ferrous ion level by measuring increase in fluorescence at 1.5 to 3.0 micromol/L incubated for 24 hrs by ferroOrange probe based fluorescence microscopic analysis; format: functional, cell-based; settings: dose 1.5-3 µmol/L
[14] = test system: MCF7; assay: Induction of intracellular ROS level in human MCF7 cells incubated for 24 hrs by DCFH-DA staining based fluorescence microscopic analysis; format: functional, cell-based; settings: dose 1.5-3 µM
[15] = test system: MCF7; assay: Induction of intracellular ROS level in human MCF7 cells at 1.5 uM incubated for 24 hrs by DCFH-DA staining based fluorescence microscopic analysis (reference value: 4.66%); format: functional
[16] = Potency index, ratio of cisplatin IC50 to test compound IC50 for antiproliferative activity against human HeLa cells assessed as inhibition of cell growth by MTT assay; format: functional
[17] = test system: MCF7; assay: Induction of ferroptosis in human MCF7 cells assessed as decrease in GPX4 activity at 1.5 to 3.0 micromol/L by absorbance based analysis (reference value: 5.90 mU/mg); format: functional; settings: dose 1.5-3 µmol/L
[18] = test system: MCF7; assay: Induction of ferroptosis in human MCF7 cells assessed as increase in MDA level at 3.0 micromol/L measured after 24 hrs by absorbance based analysis (reference value: 0.42 micromol/L); format: functional; settings: dose 3 µmol/L
[19] = test system: MCF7; assay: Induction of intracellular ROS level in human MCF7 cells at 3.0 uM incubated for 24 hrs by DCFH-DA staining based fluorescence microscopic analysis (reference value: 4.66%); format: functional
[20] = test system: MCF7; assay: Induction of ferroptosis in human MCF7 cells assessed as increase in MDA level at 1.5 micromol/L measured after 24 hrs by absorbance based analysis (reference value: 0.42 micromol/L); format: functional; settings: dose 1.5 µmol/L
[21] = Potency index, ratio of cisplatin IC50 to test compound IC50 for antiproliferative activity against human MCF7 cells assessed as inhibition of cell growth by MTT assay; format: functional

IC50 [1] [µM] | IC50 [2] [µM] | IC50 [3] [µM] | IC50 [4] [µM] | IC50 [5] [µM] | Structure (SMILES) | other results
> 50 | > 50 | > 50 | > 50 | > 50 | COc1cc(/C=C/c2cc(/C=C/c3ccc(OCCO[N+](=O)[O-])c(OC)c3)n(-c3ccc(F)cc3)n2)ccc1OCCO[N+](=O)[O-] | –
> 50 | > 50 | > 50 | > 50 | > 50 | COc1cc(/C=C/c2cc(/C=C/c3ccc(OCCCCO[N+](=O)[O-])c(OC)c3)n(-c3ccccc3F)n2)ccc1OCCCCO[N+](=O)[O-] | –
> 50 | > 50 | > 50 | > 50 | > 50 | COc1cc(/C=C/c2cc(/C=C/c3ccc(OCCO[N+](=O)[O-])c(OC)c3)n(Cc3ccccc3)n2)ccc1OCCO[N+](=O)[O-] | –
> 50 | > 50 | > 50 | > 50 | > 50 | COc1cc(/C=C/c2cc(/C=C/c3ccc(OCCO[N+](=O)[O-])c(OC)c3)n(-c3ccc(C(F)(F)F)cc3)n2)ccc1OCCO[N+](=O)[O-] | –
1.27 | 1.81 | 2.4 | 1.44 | 20.5 | COc1cc(/C=C/C(=O)C(=Cc2cccs2)C(=O)/C=C/c2ccc(OCCCO[N+](=O)[O-])c(OC)c2)ccc1OCCCO[N+](=O)[O-] | Activity [6]: Weak_effect; Compound Showed Weak Effect Compared With Vitamin C
> 50 | > 50 | > 50 | > 50 | > 50 | COc1cc(/C=C/c2cc(/C=C/c3ccc(OCCO[N+](=O)[O-])c(OC)c3)n(-c3ccccc3F)n2)ccc1OCCO[N+](=O)[O-] | –
24.6 | 22.9 | 19.9 | > 50 | > 50 | COc1cc(/C=C/C(=O)CC(=O)/C=C/c2ccc(O)c(OC)c2)ccc1O [CURCUMIN] | –
> 50 | > 50 | > 50 | > 50 | > 50 | COc1cc(/C=C/c2cc(/C=C/c3ccc(OCCCCO[N+](=O)[O-])c(OC)c3)n(-c3ccccc3)n2)ccc1OCCCCO[N+](=O)[O-] | –
> 50 | > 50 | > 50 | > 50 | > 50 | COc1cc(/C=C/c2cc(/C=C/c3ccc(OCCCO[N+](=O)[O-])c(OC)c3)n(-c3ccc(C(F)(F)F)cc3)n2)ccc1OCCCO[N+](=O)[O-] | –
2.06 | 2.5 | 3.66 | 1.74 | 7.6 | COc1cc(/C=C/C(=O)C(=Cc2ccco2)C(=O)/C=C/c2ccc(OCCCO[N+](=O)[O-])c(OC)c2)ccc1OCCCO[N+](=O)[O-] | Activity [6]: Weak_effect; Compound Showed Weak Effect Compared With Vitamin C
1.03 | 1.45 | 1.39 | 1.21 | 6.78 | COc1cc(/C=C/C(=O)C(=Cc2cccs2)C(=O)/C=C/c2ccc(OCCO[N+](=O)[O-])c(OC)c2)ccc1OCCO[N+](=O)[O-] | Activity [7]: Dose-dependent-effect; Ratio IC50 [8]: >=2; Ratio IC50 [9]: >=2; Activity [10]: Active; Activity [11]: Active; Ratio IC50 [12]: >=2; Activity [13]: Active; Activity [14]: Dose-dependent-effect; Activity [15]: 12.5%; Ratio IC50 [16]: >=2; Activity [17]: 3.52 mU/mg; Activity [18]: 1.25 µmol/L; Activity [19]: 60.7%; Activity [20]: 0.84 µmol/L; Ratio IC50 [21]: >=2
> 50 | > 50 | > 50 | > 50 | > 50 | COc1cc(/C=C/c2cc(/C=C/c3ccc(OCCCO[N+](=O)[O-])c(OC)c3)n(Cc3ccccc3)n2)ccc1OCCCO[N+](=O)[O-] | –
> 50 | > 50 | > 50 | > 50 | > 50 | COc1cc(/C=C/c2cc(/C=C/c3ccc(OCCCCO[N+](=O)[O-])c(OC)c3)n(-c3ccc(F)cc3)n2)ccc1OCCCCO[N+](=O)[O-] | –
> 50 | > 50 | > 50 | > 50 | > 50 | COc1cc(/C=C/c2cc(/C=C/c3ccc(OCCO[N+](=O)[O-])c(OC)c3)n(-c3ccccc3)n2)ccc1OCCO[N+](=O)[O-] | –
> 50 | > 50 | > 50 | > 50 | > 50 | COc1cc(/C=C/c2cc(/C=C/c3ccc(OCCCCO[N+](=O)[O-])c(OC)c3)n(-c3ccc(C(F)(F)F)cc3)n2)ccc1OCCCCO[N+](=O)[O-] | –
0.8 | 1.28 | 2.32 | 1.61 | 14.2 | COc1cc(/C=C/C(=O)C(=Cc2ccco2)C(=O)/C=C/c2ccc(OCCO[N+](=O)[O-])c(OC)c2)ccc1OCCO[N+](=O)[O-] | Activity [6]: Weak_effect; Compound Showed Weak Effect Compared With Vitamin C
> 50 | > 50 | > 50 | > 50 | > 50 | COc1cc(/C=C/c2cc(/C=C/c3ccc(OCCCCO[N+](=O)[O-])c(OC)c3)n(Cc3ccccc3)n2)ccc1OCCCCO[N+](=O)[O-] | –
> 50 | > 50 | > 50 | > 50 | > 50 | COc1cc(/C=C/c2cc(/C=C/c3ccc(OCCCO[N+](=O)[O-])c(OC)c3)n(-c3ccccc3F)n2)ccc1OCCCO[N+](=O)[O-] | –
> 50 | > 50 | > 50 | > 50 | > 50 | COc1cc(/C=C/c2cc(/C=C/c3ccc(OCC4CC4)c(OC)c3)n(-c3ccc(C(=O)OCCCCO[N+](=O)[O-])cc3)n2)ccc1OCC1CC1 | –
> 50 | > 50 | > 50 | > 50 | > 50 | COc1cc(/C=C/c2cc(/C=C/c3ccc(OCC4CC4)c(OC)c3)n(-c3ccc(C(=O)OCCCO[N+](=O)[O-])cc3)n2)ccc1OCC1CC1 | –
> 50 | > 50 | > 50 | > 50 | > 50 | COc1cc(/C=C/c2cc(/C=C/c3ccc(OCCCO[N+](=O)[O-])c(OC)c3)n(-c3ccc(F)cc3)n2)ccc1OCCCO[N+](=O)[O-] | –
> 50 | > 50 | > 50 | > 50 | > 50 | COc1cc(/C=C/c2cc(/C=C/c3ccc(OCCCO[N+](=O)[O-])c(OC)c3)n(-c3ccccc3)n2)ccc1OCCCO[N+](=O)[O-] | –
7.24 | 10.2 | 18.4 | 2.22 | > 50 | COc1cc(/C=C/C(=O)C(=Cc2cccs2)C(=O)/C=C/c2ccc(OCCCCO[N+](=O)[O-])c(OC)c2)ccc1OCCCCO[N+](=O)[O-] | Activity [6]: Weak_effect; Compound Showed Weak Effect Compared With Vitamin C
2.91 | 4.6 | 11.3 | 2.12 | 16.2 | COc1cc(/C=C/C(=O)C(=Cc2ccco2)C(=O)/C=C/c2ccc(OCCCCO[N+](=O)[O-])c(OC)c2)ccc1OCCCCO[N+](=O)[O-] | Activity [6]: Weak_effect; Compound Showed Weak Effect Compared With Vitamin C
> 50 | > 50 | > 50 | > 50 | > 50 | COc1cc(/C=C/c2cc(/C=C/c3ccc(OCCCO[N+](=O)[O-])c(OC)c3)n(-c3ccccn3)n2)ccc1OCCCO[N+](=O)[O-] | –
> 50 | > 50 | > 50 | > 50 | > 50 | COc1cc(/C=C/c2cc(/C=C/c3ccc(OCCCCO[N+](=O)[O-])c(OC)c3)n(-c3ccccn3)n2)ccc1OCCCCO[N+](=O)[O-] | –
